These results are taken from patent US12624044B2, “SMARCA degraders and uses thereof” (Kymera Therapeutics, Inc., priority 2019, dated 2026).

In general, Dmax refers to the largest share of the target that was removed. What is called DC50 is the midpoint of the concentration-degradation curve.

This assay addresses SMARCA2 (Homo sapiens, UniProt P51531). In words: MSD SMARCA2 degradation in NCI-H1299 cell line (24 h). The class given is cell-based. Details: HC: NCI-H1299 cells treated with DMSO; host or cells: NCI-H1299. The settings on record: for Dmax: NCI-H1299, NCI-H1299 cells; for DC50: NCI-H1299 cells, read-out: SMARCA2 MSD H1299 degradation 24 h: External Abs-DC50. A digest of the protocol: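 NCI-H1299 cells treated 24 h with a 3-fold, 9-point compound dilution series, then lysed in RIPA with protease inhibitor. SMARCA2 in lysate-coated MSD plates detected with rabbit anti-SMARCA2 (0.3 ug/ml) and SULFO-TAG secondary. Relative SMARCA2 level normalized between DMSO-treated H1299 cells and SMARCA2-negative A2780 cells; Dmax % binned A–D.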

SMARCA2, sequence (P51531 whole entry): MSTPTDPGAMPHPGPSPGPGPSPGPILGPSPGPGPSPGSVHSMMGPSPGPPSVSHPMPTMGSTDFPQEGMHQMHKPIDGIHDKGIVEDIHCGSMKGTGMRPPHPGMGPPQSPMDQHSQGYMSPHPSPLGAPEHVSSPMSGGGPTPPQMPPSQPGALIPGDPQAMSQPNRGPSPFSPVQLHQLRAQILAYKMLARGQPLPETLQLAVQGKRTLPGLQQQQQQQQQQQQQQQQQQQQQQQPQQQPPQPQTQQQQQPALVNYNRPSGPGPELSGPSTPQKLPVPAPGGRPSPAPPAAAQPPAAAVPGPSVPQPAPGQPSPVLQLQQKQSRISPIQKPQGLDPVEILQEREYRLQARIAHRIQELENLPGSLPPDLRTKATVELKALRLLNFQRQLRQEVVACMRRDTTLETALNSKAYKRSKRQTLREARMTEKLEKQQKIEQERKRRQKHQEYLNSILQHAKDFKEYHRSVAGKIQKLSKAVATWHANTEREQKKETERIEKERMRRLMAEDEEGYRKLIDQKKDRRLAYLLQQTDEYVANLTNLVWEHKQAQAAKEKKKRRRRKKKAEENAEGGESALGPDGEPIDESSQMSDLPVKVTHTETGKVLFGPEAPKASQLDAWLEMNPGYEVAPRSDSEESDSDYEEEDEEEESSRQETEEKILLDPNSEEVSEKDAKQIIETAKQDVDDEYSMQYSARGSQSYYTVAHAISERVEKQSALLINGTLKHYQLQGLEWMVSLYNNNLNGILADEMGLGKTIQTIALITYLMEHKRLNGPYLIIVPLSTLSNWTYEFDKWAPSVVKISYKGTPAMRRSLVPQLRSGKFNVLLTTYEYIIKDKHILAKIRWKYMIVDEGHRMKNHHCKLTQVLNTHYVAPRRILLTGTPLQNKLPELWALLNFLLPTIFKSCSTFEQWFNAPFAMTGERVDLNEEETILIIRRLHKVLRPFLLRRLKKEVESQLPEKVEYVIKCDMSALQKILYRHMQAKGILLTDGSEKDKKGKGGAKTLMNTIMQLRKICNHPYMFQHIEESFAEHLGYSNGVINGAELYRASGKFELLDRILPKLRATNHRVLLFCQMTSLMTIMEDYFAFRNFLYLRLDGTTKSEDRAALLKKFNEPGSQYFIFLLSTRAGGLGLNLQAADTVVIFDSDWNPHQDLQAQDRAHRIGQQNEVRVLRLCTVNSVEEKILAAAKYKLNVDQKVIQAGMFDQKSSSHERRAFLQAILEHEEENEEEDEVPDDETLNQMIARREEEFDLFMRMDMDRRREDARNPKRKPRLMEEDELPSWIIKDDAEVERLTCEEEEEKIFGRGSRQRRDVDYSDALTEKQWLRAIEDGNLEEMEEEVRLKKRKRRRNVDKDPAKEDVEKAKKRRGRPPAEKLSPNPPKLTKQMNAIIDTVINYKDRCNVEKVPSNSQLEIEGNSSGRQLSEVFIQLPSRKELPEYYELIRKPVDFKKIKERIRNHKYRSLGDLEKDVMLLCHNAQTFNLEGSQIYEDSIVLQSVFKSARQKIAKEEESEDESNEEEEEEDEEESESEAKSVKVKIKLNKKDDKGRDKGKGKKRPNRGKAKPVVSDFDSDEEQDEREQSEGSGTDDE

With `Cn1c(=O)n(C2CCC(=O)NC2=O)c2ccc(CCCCCN3CCC(n4cc(-c5cc(-c6ccccc6O)nnc5N)cn4)CC3)cc21` (stereo not shown) [I-183], the greatest degradation seen (Dmax) was 70 to 90% and the half-maximal degradation concentration (DC50) is less than 100 nM.

With `Cn1c(=O)n(C2CCC(=O)NC2=O)c2ccc(CCCCCCCN3CCC(n4cc(-c5cc(-c6ccccc6O)nnc5N)cn4)CC3)cc21` (stereo not shown) [I-184], the maximal degradation (Dmax) was less than 50% and the half-maximal degradation concentration (DC50) is more than 1000 nM.

Turning to `Cn1c(=O)n(C2CCC(=O)NC2=O)c2cccc(CCCCCCCCN3CCN(c4cc(-c5ccccc5O)nnc4N)CC3)c21` (stereo not shown) [I-185], the Dmax is less than 50% and the DC50 was more than 1000 nM.

For `Cn1c(=O)n(C2CCC(=O)NC2=O)c2ccc(CCc3cnc(N4C5CCC4CN(c4cc(-c6ccccc6O)nnc4N)C5)nc3)cc21` (stereo not shown) [I-186, 3-[5-[2-[2-[3-[3-amino-6-(2-hydroxyphenyl)pyridazin-4-yl]-3,8-diazabicyclo[3.2.1]octan-8-yl]pyrimidin-5-yl]ethyl]-3-methyl-2-oxo-benzimidazol-1-yl]piperidine-2,6-dione], the greatest degradation seen (Dmax) is 50 to 70% and the DC50 fell in the range of 100 to 500 nM.

In the case of `CN1C(=O)CCC(n2c(=O)n(C)c3cc(CCCCCCCc4cnc(N5C6CCC5CN(c5cc(-c7ccccc7O)nnc5N)C6)nc4)ccc32)C1=O` (stereo not shown) [I-187], the greatest degradation seen (Dmax) was less than 50% and the DC50 was more than 1000 nM.

`Cn1c(=O)n(C2CCC(=O)NC2=O)c2cccc(CCCN3CCC[C@@H](Cn4cc(-c5cc(-c6ccccc6O)nnc5N)cn4)C3)c21` (stereo partly shown) [I-188]: the greatest degradation seen (Dmax) was in the range of 70 to 90% and the 50% degradation concentration (DC50) was 100 to 500 nM.

For the compound `Cn1c(=O)n(C2CCC(=O)NC2=O)c2cccc(CCCCN3CCC[C@@H](Cn4cc(-c5cc(-c6ccccc6O)nnc5N)cn4)C3)c21` (stereo partly shown) [I-189], the maximal degradation (Dmax) was more than 90% and the DC50 was less than 100 nM.

Consider `Cn1c(=O)n(C2CCC(=O)NC2=O)c2cccc(CCCCCN3CCC[C@@H](Cn4cc(-c5cc(-c6ccccc6O)nnc5N)cn4)C3)c21` (stereo partly shown) [I-190], for which the Dmax was in the range of 70 to 90% and the 50% degradation concentration (DC50) is 100 to 500 nM.

On to `Cn1c(=O)n(C2CCC(=O)NC2=O)c2ccc(CCCN3CCC[C@@H](Cn4cc(-c5cc(-c6ccccc6O)nnc5N)cn4)C3)cc21` (stereo partly shown) [I-191], for which the Dmax fell in the range of 50 to 70% and the DC50 lay in the range of 100 to 500 nM.

As for `Cn1c(=O)n(C2CCC(=O)NC2=O)c2ccc(CCCCN3CCC[C@@H](Cn4cc(-c5cc(-c6ccccc6O)nnc5N)cn4)C3)cc21` (stereo partly shown) [I-192], the Dmax was in the range of 50 to 70% and the DC50 was 100 to 500 nM.

Turning to `Cn1c(=O)n(C2CCC(=O)NC2=O)c2ccc(CCCCCN3CCC[C@@H](Cn4cc(-c5cc(-c6ccccc6O)nnc5N)cn4)C3)cc21` (stereo partly drawn) [I-193, 3-[5-[5-[(3R)-3-[[4-[3-amino-6-(2-hydroxyphenyl)pyridazin-4-yl]pyrazol-1-yl]methyl]-1-piperidyl]pentyl]-3-methyl-2-oxo-benzimidazol-1-yl]piperidine-2,6-dione], the Dmax fell in the range of 50 to 70% and the half-maximal degradation concentration (DC50) lay in the range of 501 to 1000 nM.

Turning to `Cn1c(=O)n(C2CCC(=O)NC2=O)c2cccc(CCCN3CCC(Cn4cc(-c5cc(-c6ccccc6O)nnc5N)cn4)CC3)c21` (stereo not shown) [I-194], the Dmax was more than 90% and the DC50 was less than 100 nM.

On to `CN(CC#Cc1cnc(N2C3CCC2CN(c2cc(-c4ccccc4O)nnc2N)C3)nc1)CCCc1ccc2c(c1)n(C)c(=O)n2C1CCC(=O)NC1=O` (stereo not shown) [I-195, 3-[5-[3-[3-[2-[3-[3-amino-6-(2-hydroxyphenyl)pyridazin-4-yl]-3,8-diazabicyclo[3.2.1]octan-8-yl]pyrimidin-5-yl]prop-2-ynyl-methyl-amino]propyl]-3-methyl-2-oxo-benzimidazol-1-yl]piperidine-2,6-dione], for which the Dmax is more than 90% and the half-maximal degradation concentration (DC50) was less than 100 nM.

Regarding `Cn1c(=O)n(C2CCC(=O)NC2=O)c2ccc(CN3CCC(c4cnc(N5C6CCC5CN(c5cc(-c7ccccc7O)nnc5N)C6)nc4)CC3)cc21` (stereo not shown) [I-196], the Dmax is more than 90% and the DC50 is less than 100 nM.

As to `CN[C@@H](C)C(=O)N[C@H](C(=O)N1CCC[C@H]1c1nc(C(=O)c2cccc(OCCOCCOCCNCc3ccc(-c4cc(-c5ccccc5O)nnc4N)cc3)c2)cs1)C1CCCCC1` [I-198, (S)—N—((S)-2-((S)-2-(4-(3-(2-(2-(2-((4-(3-amino-6-(2-hydroxyphenyl)pyridazin-4-yl)benzyl)amino)ethoxy)ethoxy)ethoxy)benzoyl)thiazol-2-yl)pyrrolidin-1-yl)-1-cyclohexyl-2-oxoethyl)-2-(methylamino)propanamide], the Dmax fell in the range of 50 to 70% and the DC50 is more than 1000 nM.

With `CN[C@@H](C)C(=O)N[C@H](C(=O)N1Cc2cc(OCCOCCOCCOCCNC(=O)CCCOc3cccc(N4C[C@H]5C[C@@H]4CN5/C=C/C(=O)c4ccccc4O)n3)ccc2C[C@H]1C(=O)N[C@@H]1CCCc2ccccc21)C(C)(C)C` [I-199], the DC50 is more than 1000 nM.

With `CN[C@@H](C)C(=O)N[C@H](C(=O)N1Cc2cc(OCCOCCOCCNC(=O)CCCOc3cccc(N4C[C@H]5C[C@@H]4CN5/C=C/C(=O)c4ccccc4O)n3)ccc2C[C@H]1C(=O)N[C@@H]1CCCc2ccccc21)C(C)(C)C` [I-200], the half-maximal degradation concentration (DC50) was more than 1000 nM.

Turning to `Cc1ncsc1-c1ccc(CNC(=O)[C@@H]2C[C@@H](O)CN2C(=O)[C@@H](NC(=O)COCCOCCOCCOCCNC(=O)CCCOc2cccc(N3C[C@H]4C[C@@H]3CN4/C=C/C(=O)c3ccccc3O)n2)C(C)(C)C)cc1` [I-201], the DC50 was more than 1000 nM.

Consider `CN[C@@H](C)C(=O)N[C@H](C(=O)N1Cc2cc(OCCOCCOCCOCCOCCOCCNC(=O)CCCCCCCCOc3ccnc(N4C[C@H]5C[C@@H]4CN5/C=C/C(=O)c4ccccc4O)c3)ccc2C[C@H]1C(=O)N[C@@H]1CCCc2ccccc21)C(C)(C)C` [I-202], for which the DC50 is more than 1000 nM.

Turning to `CN[C@@H](C)C(=O)N[C@H](C(=O)N1Cc2cc(OCCOCCOCCOCCOCCNC(=O)CCCCCCCCOc3ccnc(N4C[C@H]5C[C@@H]4CN5/C=C/C(=O)c4ccccc4O)c3)ccc2C[C@H]1C(=O)N[C@@H]1CCCc2ccccc21)C(C)(C)C` [I-203], the DC50 is more than 1000 nM.

`CN[C@@H](C)C(=O)N[C@H](C(=O)N1Cc2cc(OCCOCCOCCOCCNC(=O)CCCCCCCCOc3ccnc(N4C[C@H]5C[C@@H]4CN5/C=C/C(=O)c4ccccc4O)c3)ccc2C[C@H]1C(=O)N[C@@H]1CCCc2ccccc21)C(C)(C)C` [I-204]: the half-maximal degradation concentration (DC50) was more than 1000 nM.

As to `CN[C@@H](C)C(=O)N[C@H](C(=O)N1Cc2cc(OCCOCCOCCNC(=O)CCCCCCCCOc3ccnc(N4C[C@H]5C[C@@H]4CN5/C=C/C(=O)c4ccccc4O)c3)ccc2C[C@H]1C(=O)N[C@@H]1CCCc2ccccc21)C(C)(C)C` [I-205], the DC50 was more than 1000 nM.

As to `CN[C@@H](C)C(=O)N[C@H](C(=O)N1Cc2cc(OCCOCCOCCOCCOCCOCCNC(=O)c3ccc(C(C)n4cc(-c5cc(-c6ccccc6O)nnc5N)cn4)cc3)ccc2C[C@H]1C(=O)N[C@@H]1CCCc2ccccc21)C(C)(C)C` (stereo partly shown) [I-206], the DC50 is more than 1000 nM.

As to `CN[C@@H](C)C(=O)N[C@H](C(=O)N1Cc2cc(OCCOCCOCCOCCOCCNC(=O)c3ccc(C(C)n4cc(-c5cc(-c6ccccc6O)nnc5N)cn4)cc3)ccc2C[C@H]1C(=O)N[C@@H]1CCCc2ccccc21)C(C)(C)C` (stereo partly shown) [I-207], the DC50 is more than 1000 nM.

`CN[C@@H](C)C(=O)N[C@H](C(=O)N1Cc2cc(OCCOCCOCCOCCNC(=O)c3ccc(C(C)n4cc(-c5cc(-c6ccccc6O)nnc5N)cn4)cc3)ccc2C[C@H]1C(=O)N[C@@H]1CCCc2ccccc21)C(C)(C)C` (stereo partly shown) [I-208]: the DC50 is more than 1000 nM.

`CN[C@@H](C)C(=O)N[C@H](C(=O)N1Cc2cc(OCCOCCOCCNC(=O)c3ccc(C(C)n4cc(-c5cc(-c6ccccc6O)nnc5N)cn4)cc3)ccc2C[C@H]1C(=O)N[C@@H]1CCCc2ccccc21)C(C)(C)C` (stereo partly shown) [I-209]: the half-maximal degradation concentration (DC50) was more than 1000 nM.

For `Cc1ncsc1-c1ccc(CNC(=O)[C@@H]2C[C@@H](O)CN2C(=O)[C@@H](NC(=O)CCCCCN2CCC(c3cnc(N4C5CCC4CN(c4cc(-c6ccccc6O)nnc4N)C5)nc3)CC2)C(C)(C)C)cc1` [I-210, (2S,4R)-1-[(2S)-2-[6-[4-[2-[3-[3-amino-6-(2-hydroxyphenyl)pyridazin-4-yl]-3,8-diazabicyclo[3.2.1]octan-8-yl]pyrimidin-5-yl]-1-piperidyl]hexanoylamino]-3,3-dimethyl-butanoyl]-4-hydroxy-N-[[4-(4-methylthiazol-5-yl)phenyl]methyl]pyrrolidine-2-carboxamide], the Dmax is more than 90% and the half-maximal degradation concentration (DC50) was 501 to 1000 nM.

Turning to `Cc1ncsc1-c1ccc(CNC(=O)[C@@H]2C[C@@H](O)CN2C(=O)[C@@H](NC(=O)CN2CCC(c3cnc(N4C5CCC4CN(c4cc(-c6ccccc6O)nnc4N)C5)nc3)CC2)C(C)(C)C)cc1` [I-211, (2S,4R)-1-[(2S)-2-[[2-[4-[2-[3-[3-amino-6-(2-hydroxyphenyl)pyridazin-4-yl]-3,8-diazabicyclo[3.2.1]octan-8-yl]pyrimidin-5-yl]-1-piperidyl]acetyl]amino]-3,3-dimethyl-butanoyl]-4-hydroxy-N-[[4-(4-methylthiazol-5-yl)phenyl]methyl]pyrrolidine-2-carboxamide], the maximal degradation (Dmax) is more than 90% and the DC50 is 100 to 500 nM.

For `Cc1ncsc1-c1ccc(CNC(=O)[C@@H]2C[C@@H](O)CN2C(=O)[C@@H](NC(=O)CCCCCN(C)Cc2ccc(N3CCN(c4cc(-c5ccccc5O)nnc4N)CC3)cc2)C(C)(C)C)cc1` [I-212, (2S,4R)-1-[(2S)-2-[6-[[4-[4-[3-amino-6-(2-hydroxyphenyl)pyridazin-4-yl]piperazin-1-yl]phenyl]methyl-methyl-amino]hexanoylamino]-3,3-dimethyl-butanoyl]-4-hydroxy-N-[[4-(4-methylthiazol-5-yl)phenyl]methyl]pyrrolidine-2-carboxamide], the Dmax was less than 50% and the 50% degradation concentration (DC50) is more than 1000 nM.

As to `Cc1ncsc1-c1ccc(CNC(=O)[C@@H]2C[C@@H](O)CN2C(=O)[C@@H](NC(=O)CCCCCCCCCN(C)Cc2ccc(N3CCN(c4cc(-c5ccccc5O)nnc4N)CC3)cc2)C(C)(C)C)cc1` [I-213], the greatest degradation seen (Dmax) fell in the range of 70 to 90% and the DC50 was in the range of 501 to 1000 nM.
